Counter-ions that a name gives are not always drawn. Like-named read-outs stand apart in the source and are kept apart here.
How the values were obtained:
Format in all cases: cell-based, rat
[1] = test system: fibrin-induced microglia activation; experiment: Image-based assay of fibrin-induced microglia activation (HTS and dose response); conditions: for inhibition at 10 µM: read-out: Fibrin % inhibition; for fib_HS: Hill slope of fibrin dose response
[2] = test system: LPS-induced microglia activation; experiment: Image-based assay of LPS-induced microglia activation (HTS and dose response); conditions: for inhibition at 10 µM: read-out: LPS % inhibition; for LPS_HS: Hill slope of LPS dose response
[3] = test system: fibrin- and LPS-induced microglia activation; experiment: cells
[4] = primary microglia HTS, fibrin stimulation, compounds at 10 μM
[5] = primary microglia HTS, LPS stimulation, compounds at 10 μM
[6] = classification by fibrin and LPS inhibition, HTS at 10 μM
[7] = Rattus norvegicus, Microglia, 48 h
[8] = Rattus norvegicus, Microglia, primary microglia HTS, fibrin stimulation, compounds at 10 μM
[9] = Rattus norvegicus, Microglia, primary microglia HTS, LPS stimulation, compounds at 10 μM
[10] = quadrant by fibrin and LPS inhibition, HTS at 10 μM
[11] = Rattus norvegicus, Microglia, Table 7, read-out: fib_IC50
[12] = Rattus norvegicus, Microglia, Table 7, read-out: LPS_IC50
[13] = Table 7, fib = fibrin, LPS, tox = toxicity
[14] = primary microglia HTS, fibrin stimulation, activation = cell size >800 μm2
[15] = primary microglia HTS, LPS stimulation, activation = cell size >800 μm2
[16] = quadrant by fibrin and LPS inhibition in HTS of 1907 compounds
[17] = primary microglia HTS, fibrin stimulation, cell size >800 μm2 as marker of activation
[18] = classification by fibrin and LPS inhibition in HTS
[19] = primary HTS, 10 μM, fibrin-stimulated primary microglia
[20] = primary HTS, 10 μM, LPS-stimulated primary microglia

Nc1ccc(C(=O)Oc2ccccc2)c(O)c1 [Fenamisal, Phenyl Aminosalicylate]
Fibrin % inhibition [1, 4]: −8%
LPS % inhibition [2, 5]: 16%
Quadrant (FIG. 5b) [3, 6]: Q4

CC1=C(/C=C/C(C)=C/C=C/C(C)=C/C=C/C=C(C)/C=C/C=C(C)/C=C/C2=C(C)CCCC2(C)C)C(C)(C)CCC1 [Beta-carotene]
inhibition at 10 µM ([1]; Rattus norvegicus, Microglia): -15%
inhibition at 10 µM ([2]; Rattus norvegicus, Microglia): -3%
Quadrant (FIG. 5b) [3]: Q4

COC(=O)C1=C(C)NC(C)=C(C(=O)OC)C1c1ccccc1[N+](=O)[O-] [Nifedipine]
inhibition at 10 µM ([1]; Rattus norvegicus, Microglia): -36%
inhibition at 10 µM [2, 7]: 2%
Quadrant (FIG. 5b) [3]: Q4

CN[C@@H](C)[C@H](O)c1ccccc1.Cl [Ephedrine (1r,2s) Hydrochloride]
Fibrin % inhibition [1, 4]: −26%
LPS % inhibition [2, 5]: 10%
Quadrant (FIG. 5b) [3, 6]: Q4

Nc1ccc(S(N)(=O)=O)cc1 [Sulfanilamide]
inhibition at 10 µM ([1]; Rattus norvegicus, Microglia): -14%
inhibition at 10 µM ([2]; Rattus norvegicus, Microglia): 11%
Quadrant (FIG. 5b) [3]: Q4

O=C1O[C@H]([C@@H](O)CO)C(O)=C1O [Vitamin C]
Fibrin % inhibition ([1]; primary microglia HTS, 10 μM, fibrin-stimulated, cell size >800 μm^2 as marker of activation): −28%
LPS % inhibition ([2]; primary microglia HTS, 10 μM, LPS-stimulated, cell size >800 μm^2 as marker of activation): 18%
Quadrant (FIG. 5b) ([3]; HTS of 1907 compounds, quadrant by fibrin and LPS inhibition): Q4

CNCC[C@@H](Oc1ccccc1C)c1ccccc1 [Atomoxetine Hydrochloride]
inhibition at 10 µM [1, 8]: 15%
inhibition at 10 µM [2, 9]: 7%
Quadrant (FIG. 5b) [3, 10]: Q4

O=C(O)COCCN1CCN([C@H](c2ccccc2)c2ccc(Cl)cc2)CC1 [Levocetirizine Dihydrochloride]
inhibition at 10 µM ([1]; Rattus norvegicus, Microglia): -44%
inhibition at 10 µM [2, 7]: -2%
Quadrant (FIG. 5b) [3]: Q4

CC(C)(C(=O)O)c1ccc(C(O)CCCN2CCC(C(O)(c3ccccc3)c3ccccc3)CC2)cc1 (centres unmarked) [Fexofenadine]
inhibition at 10 µM ([1]; Rattus norvegicus, Microglia): 13%
inhibition at 10 µM [2, 7]: 14%
Quadrant (FIG. 5b) [3]: Q4

NCCCC[C@H](N[C@@H](CCc1ccccc1)C(=O)O)C(=O)N1CCC[C@H]1C(=O)O [Lisinopril]
inhibition at 10 µM ([1]; Rattus norvegicus, Microglia): 1%
inhibition at 10 µM [2, 7]: 3%
Quadrant (FIG. 5b) [3]: Q4

CC(C)C[C@H](CN)CC(=O)O [Pregabalin]
inhibition at 10 µM ([1]; Rattus norvegicus, Microglia): -5%
inhibition at 10 µM [2, 7]: 1%
Quadrant (FIG. 5b) [3]: Q4

O=C1C=C2CC3(O)COc4cc(O)ccc4C3=C2C=C1O (centres unmarked) [brazilein]
IC50 [1, 11]: 1.47 µM
IC50 [2, 12]: 2.17 µM
Activity [3, 13]: fib/LPS

CC(C)CCCCCOC(=O)COc1ccc(Cl)cc1Cl
IC50 [1, 11]: 0.906 µM
IC50 [2, 12]: 1.01 µM
Activity [3, 13]: fib/LPS

CC(N)C(O)c1ccccc1 (centres unmarked) [Phenylpropanolamine]
inhibition at 10 µM ([1]; Rattus norvegicus, Microglia): -2%
inhibition at 10 µM [2, 7]: -6%
Quadrant (FIG. 5b) [3]: Q4

Hexylene Glycol
Fibrin % inhibition [1, 14]: −8%
LPS % inhibition [2, 15]: 12%
Quadrant (FIG. 5b) [3, 16]: Q4

OC[C@H]1O[C@H](O[C@H]2[C@H](O)[C@@H](O)C(O)O[C@@H]2CO)[C@H](O)[C@@H](O)[C@@H]1O (stereo partly drawn) [D-(+)-maltose]
Fibrin % inhibition [1, 4]: −7%
LPS % inhibition [2, 5]: 14%
Quadrant (FIG. 5b) [3, 6]: Q4

Cc1cc2nc3c(=O)[nH]c(=O)nc-3n(C[C@H](O)[C@H](O)[C@H](O)COP(=O)([O-])O)c2cc1C.[Na+] [Riboflavin 5-phosphate Sodium]
Fibrin % inhibition [1, 17]: 11%
LPS % inhibition [2]: 24%
Quadrant (FIG. 5b) [3, 18]: Q4

O=C(O)COCCN1CCN(C(c2ccccc2)c2ccc(Cl)cc2)CC1 (centres unmarked) [Cetirizine]
inhibition at 10 µM ([1]; Rattus norvegicus, Microglia): 5%
inhibition at 10 µM ([2]; Rattus norvegicus, Microglia): 0%
Quadrant (FIG. 5b) [3]: Q4

O=C(CCCN1CCN(c2ccccn2)CC1)c1ccc(F)cc1 [Azaperone]
inhibition at 10 µM [1, 8]: -4%
inhibition at 10 µM [2, 9]: 12%
Quadrant (FIG. 5b) [3, 10]: Q4

Spiramycin
Fibrin % inhibition [1, 17]: 17%
LPS % inhibition [2]: 14%
Quadrant (FIG. 5b) [3, 18]: Q4

podophyllotoxin acetate
fib_HS ([1]; Table 7): −1.10
fib specificity ([1]; Table 7): 0.5
LPS_HS ([2]; Table 7): −0.87
LPS specificity ([2]; Table 7): 1.8
IC50 ([2]; Table 7, read-out: LPS_IC50): 0.012 µM
Activity [3, 13]: fib/LPS

N.N.[Cl][Pt][Cl] [Cisplatin]
Fibrin % inhibition [1, 19]: −13%
LPS % inhibition [2, 20]: 20%
Quadrant (FIG. 5b) ([3]; primary HTS, 10 μM): Q4

COc1ccc2c(c1OC)C(=O)O[C@@H]2[C@H]1c2cc3c(cc2CCN1C)OCO3 [Hydrastine (1r,9s)]
Fibrin % inhibition [1, 14]: −27%
LPS % inhibition [2, 15]: 10%
Quadrant (FIG. 5b) [3, 16]: Q4

C[C@]12CC[C@@H]3c4ccc(O)cc4CC[C@H]3[C@@H]1C[C@@H](O)[C@@H]2O [Estriol]
inhibition at 10 µM ([1]; Rattus norvegicus, Microglia): -17%
LPS % inhibition ([2]; 10 µM): 16%
inhibition at 10 µM ([2]; Rattus norvegicus, Microglia): 8%
Quadrant (FIG. 5b) [3]: Q4

Cc1cc(C(C)(C)C)c(O)c(C(C)(C)C)c1
Fibrin % inhibition [1, 4]: −4%
LPS % inhibition [2, 5]: 5%
Quadrant (FIG. 5b) [3, 10]: Q4

CC(=O)OCC(=O)[C@@]12OC(C)(C)O[C@@H]1C[C@H]1[C@@H]3C[C@H](F)C4=CC(=O)C=C[C@]4(C)[C@@]3(F)[C@@H](O)C[C@@]12C [Fluocinonide, reference compound]
inhibition at 10 µM ([1]; Rattus norvegicus, Microglia): 112%
IC50 ([1]; Rattus norvegicus, Microglia, read-out: fib_IC50 (uM)): 0.002 µM
inhibition at 10 µM [2, 7]: 106%
IC50 ([2]; Rattus norvegicus, Microglia, read-out: LPS_IC50 (uM)): 0.002 µM
Activity [3]: fib/LPS
Quadrant (FIG. 5b) [3]: Q2

C[N+]1(C)CCC(OC(=O)C(O)(c2ccccc2)C2CCCC2)C1 (centres unmarked) [Glycopyrrolate]
inhibition at 10 µM ([1]; Rattus norvegicus, Microglia): -33%
inhibition at 10 µM [2, 7]: 3%
Quadrant (FIG. 5b) [3]: Q4

CCCCCCCCCCCCCCCC(=O)O[C@@H]1[C@@H](O)[C@@H](O)[C@@H]([C@H](NC(=O)[C@@H]2C[C@@H](CCC)CN2C)[C@H](C)Cl)O[C@@H]1SC.Cl [Clindamycin Palmitate Hydrochloride]
Fibrin % inhibition [1, 19]: −23%
LPS % inhibition [2, 20]: 11%
Quadrant (FIG. 5b) ([3]; primary HTS, 10 μM): Q4

CC1=C(C(=O)O)N2C(=O)[C@@H](NC(=O)[C@H](N)c3ccccc3)[C@H]2SC1 [Cephalexin]
inhibition at 10 µM ([1]; Rattus norvegicus, Microglia): -1%
inhibition at 10 µM ([2]; Rattus norvegicus, Microglia): 17%
Quadrant (FIG. 5b) [3]: Q4

Cc1cc(/C=C/c2ccc3cc(N(C)C)ccc3[n+]2C)c(C)n1-c1ccccc1 [Pyrvinium]
inhibition at 10 µM ([1]; Rattus norvegicus, Microglia): 113%
inhibition at 10 µM ([2]; Rattus norvegicus, Microglia): 115%
Quadrant (FIG. 5b) [3]: Q2

Adipic Acid, Hexanedioic Acid
Fibrin % inhibition [1, 4]: −24%
LPS % inhibition [2, 5]: 8%
Quadrant (FIG. 5b) [3, 10]: Q4

CCn1cc(C(=O)O)c(=O)c2cc(F)c(N3CCNC(C)C3)c(F)c21 (centres unmarked) [Lomefloxacin]
inhibition at 10 µM ([1]; Rattus norvegicus, Microglia): 7%
inhibition at 10 µM [2, 7]: 15%
Quadrant (FIG. 5b) [3]: Q4

C[C@H]1O[C@H](O[C@H]2[C@H](O)[C@@H](O)[C@@H](O[C@H]3[C@H](O)[C@@H](O)C(O)O[C@@H]3CO)O[C@@H]2CO)[C@H](O)[C@@H](O)[C@@H]1N[C@H]1C=C(CO)[C@@H](O)[C@H](O)[C@H]1O (some centres unmarked) [Acarbose]
inhibition at 10 µM [1, 8]: -22%
inhibition at 10 µM ([1]; Rattus norvegicus, Microglia, primary microglia HTS, fibrin stimulation, increased cell size (>800 μm^2) as marker of activation): 81%
inhibition at 10 µM ([2]; Rattus norvegicus, Microglia, 48 h, primary microglia HTS, LPS stimulation, increased cell size (>800 μm^2) as marker of activation): 62%
inhibition at 10 µM [2, 9]: -5%
Quadrant (FIG. 5b) [3, 16]: Q2
Quadrant (FIG. 5b) [3, 10]: Q4

COc1cc2c(cc1OC)C(=O)C(CC1CCN(Cc3ccccc3)CC1)C2 (centres unmarked) [Donepezil]
inhibition at 10 µM ([1]; Rattus norvegicus, Microglia): 5%
inhibition at 10 µM ([2]; Rattus norvegicus, Microglia): 17%
Quadrant (FIG. 5b) [3]: Q4

COc1cc([C@@H]2c3cc4c(c(O)c3C[C@H]3COC(=O)[C@@H]32)OCO4)cc(OC)c1OC [beta-peltatin]
fib_HS ([1]; Table 7): −2.10
fib specificity ([1]; Table 7): 0.5
IC50 ([1]; Table 7, read-out: fib_IC50): 0.505 µM
LPS_HS ([2]; Table 7): −1.50
LPS specificity ([2]; Table 7): 2.0
IC50 ([2]; Table 7, read-out: LPS_IC50): 0.252 µM
Activity [3, 13]: fib/LPS

CC(C)(CO)[C@@H](O)C(=O)NCCC(=O)NCCSSCCNC(=O)CCNC(=O)[C@H](O)C(C)(C)CO [Pantethine]
inhibition at 10 µM ([1]; Rattus norvegicus, Microglia): -53%
inhibition at 10 µM [2, 7]: 7%
Quadrant (FIG. 5b) [3]: Q4
